The values that follow come from article PMC10647736, “Aza Analogs of the TRPML1 Inhibitor Estradiol Methyl Ether (EDME)” (Molecules, 2023).

Entries after “also recorded” stand apart in the source; their conditions may differ. Like-named read-outs stand apart in the source and are kept apart here. Some results are limits rather than exact numbers.

One may read the IC50 as the concentration that inhibits the measured activity by half. A word on the melting point: it is the temperature of the solid-liquid transition.

Data set [1] deals with T1, hTRPML1ΔNC-YFP, a plasma membrane variant of wild-type TRPML1 (Homo sapiens, UniProt Q9GZU1). Also on record: method as in PMID 33859333. As to conditions: previous work, cited from earlier work; for IC50: hTRPML1ΔNC-YFP, read-out: IC50 TRPML1 inhibition.
T1 sequence (Q9GZU1 whole entry, stated change not applied): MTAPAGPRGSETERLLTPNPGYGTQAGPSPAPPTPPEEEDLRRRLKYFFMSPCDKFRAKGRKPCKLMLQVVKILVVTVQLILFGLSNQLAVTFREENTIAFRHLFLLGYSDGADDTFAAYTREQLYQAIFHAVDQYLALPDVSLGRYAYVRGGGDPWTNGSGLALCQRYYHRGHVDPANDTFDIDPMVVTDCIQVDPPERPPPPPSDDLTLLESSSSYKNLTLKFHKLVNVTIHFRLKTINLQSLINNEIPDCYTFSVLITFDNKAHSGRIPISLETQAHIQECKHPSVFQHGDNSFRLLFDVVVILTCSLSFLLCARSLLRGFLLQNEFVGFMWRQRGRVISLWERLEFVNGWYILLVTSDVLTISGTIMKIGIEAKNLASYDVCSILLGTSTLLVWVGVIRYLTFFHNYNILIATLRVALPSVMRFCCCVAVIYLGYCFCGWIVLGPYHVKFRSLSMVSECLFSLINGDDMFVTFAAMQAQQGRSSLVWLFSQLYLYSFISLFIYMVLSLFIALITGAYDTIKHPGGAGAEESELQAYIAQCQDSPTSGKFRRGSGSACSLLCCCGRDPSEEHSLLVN
Data set [2] concerns the target T1, hTRPML1ΔNC-YFP, a plasma membrane variant of wild-type TRPML1. The data set is described as follows: TRPML1 inhibition, fluorimetric Ca2+ influx assay (Fluo-4/AM) on HEK293 cells stably expressing plasma membrane-targeted TRPML1. The data set is classed as cell-based. As to conditions: for IC50 / TRPML1-inhibitory activity (in words): hTRPML1ΔNC-YFP; for IC50: HEK293 cells, Ca2+ influx, Fluo-4/AM; for TRPML1-inhibitory activity (in words): Ca2+ influx assay. The source says:
The two target compounds, pyridine analog 1 and pyrimidine analog 2, as well as the inadvertently obtained pyridone analog 6 were submitted to our previously described test for inhibition of TRPML1 on hTRPML1ΔNC-YFP, a plasma membrane variant of wild-type TRPML1 by means of a fluorimetric Ca^2+ influx assay.
hTRPML1ΔNC-YFP, a plasma membrane variant of wild-type TRPML1, was obtained from HEK293 cells stably expressing plasma membrane-targeted TRPML1 by trypsination and after resuspending in HEPES buffered solution. IC50 values for TRPML1 inhibition were determined on a fluorescence imaging plate reader built into a robotic liquid handling station (Freedom Evo 150, Tecan, Mannedorf, Switzerland) using the calcium dye Fluo-4/AM (Invitrogen, Thermo Fisher Scientific, Waltham, MA, USA) according to the test procedure described in our previous work in the section Compound screening and generation of concentration–response curves.

On the set-up of data set [3]: method as in PMID 33859333. The conditions noted are these: compared to EDME; cited from earlier work.

On to `C[C@]12CC[C@@H]3c4ccc(O)cc4CC[C@H]3[C@@H]1CC[C@@H]2O` [17β-estradiol], for which the IC50 in data set [1] is 5300 nM.
Consider `COc1ccc2c(n1)CC[C@@H]1[C@@H]2CC[C@]2(C)[C@@H](O)CC[C@@H]12` [Compound 1, (4bS,6aS,7S,9aS,9bR)-2-Methoxy-6a-methyl-4b,6,6a,7,8,9,9a,9b,10,11-decahydro-5H-indeno[5,4-f]quinolin-7-ol], for which the melting point was 157 °C. Besides, the “TRPML1-inhibitory activity, factor less potent than EDME” value in data set [2] (compared to EDME) is less than 2. For the same compound, half-maximal inhibition in data set [2] (IC50) was put at 1000 nM.
Consider `COc1ncc2c(n1)CC[C@@H]1[C@@H]2CC[C@]2(C)[C@@H](O)CC[C@@H]12` [Compound 2, (4bS,6aS,7S,9aS,9bR)-2-Methoxy-6a-methyl-4b,6,6a,7,8,9,9a,9b,10,11-decahydro-5H-indeno[5,4-f]quinazolin-7-ol], for which, in data set [2], the “TRPML1-inhibitory activity (in words)” value is recorded as “only a very weak inhibitor; also recorded: significantly lost inhibitory potency” and the IC50 is 8800 nM.
Take `C[C@]12CC[C@@H]3c4ccc(=O)[nH]c4CC[C@H]3[C@@H]1CC[C@@H]2O` [Compound 6, (4bS,6aS,7S,9aS,9bR)-7-hydroxy-6a-methyl-1,4b,5,6,6a,7,8,9,9a,9b,10,11-dodecahydro-2H-indeno[5,4-f]quinolin-2-one]: the “TRPML1-inhibitory activity (in words)” value was “virtually inactive” in data set [2] and “completely inactive” in data set [2] (listed as pyridone analog). For the same compound, the midpoint of inhibition in data set [2], the IC50, lay at 40000 nM.
With `COc1ccc2c(c1)CC[C@@H]1[C@@H]2CC[C@]2(C)[C@@H](O)CC[C@@H]12` [EDME, estradiol methyl ether], the IC50 in data set [1] and in data set [2] was 600 nM in each case.
As to `C=Cc1ccc2c(c1)CC[C@@H]1[C@@H]2CC[C@]2(C)[C@@H](O)CC[C@@H]12` [PRU-10], the IC50 in data set [1] is 410 nM. For the same compound, in data set [3], the “estrogenic activity (in words)” value is given as “reduced estrogenic activity”.
For the compound `CC(=O)c1ccc2c(c1)CC[C@@H]1[C@@H]2CC[C@]2(C)[C@@H](O)CC[C@@H]12` [PRU-12], the IC50 in data set [1] was 280 nM. Also, in data set [3], the “estrogenic activity (in words)” value is on record as “reduced estrogenic activity”.
With `C#C[C@]1(O)CC[C@H]2[C@@H]3CCc4cc(OC)ccc4[C@H]3CC[C@@]21C` [mestranol], in data set [1], the “TRPML1 inhibition (in words)” value was “considerable activity”.
